The target of this test is T1, Acetylcholinesterase (Rattus norvegicus, UniProt P37136).
T1 sequence (P37136 whole entry): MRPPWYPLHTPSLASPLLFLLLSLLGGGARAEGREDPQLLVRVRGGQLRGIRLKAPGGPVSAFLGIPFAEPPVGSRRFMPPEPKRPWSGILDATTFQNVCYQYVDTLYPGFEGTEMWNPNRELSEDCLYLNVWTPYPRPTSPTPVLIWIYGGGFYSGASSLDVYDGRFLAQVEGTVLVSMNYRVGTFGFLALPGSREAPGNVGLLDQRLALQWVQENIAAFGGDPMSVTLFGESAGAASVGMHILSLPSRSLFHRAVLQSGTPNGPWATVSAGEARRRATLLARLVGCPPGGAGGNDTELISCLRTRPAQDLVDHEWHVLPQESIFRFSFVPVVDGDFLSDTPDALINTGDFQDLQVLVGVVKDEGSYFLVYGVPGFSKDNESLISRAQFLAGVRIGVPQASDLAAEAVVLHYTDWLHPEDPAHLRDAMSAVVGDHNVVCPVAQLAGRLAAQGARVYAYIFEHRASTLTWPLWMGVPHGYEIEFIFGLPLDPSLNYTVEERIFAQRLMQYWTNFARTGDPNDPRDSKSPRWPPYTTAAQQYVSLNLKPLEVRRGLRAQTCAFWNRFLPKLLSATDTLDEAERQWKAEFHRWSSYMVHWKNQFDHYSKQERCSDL
Kind of test: Inhibition concentration against rat acetylcholinesterase.
Regarding `CCN(CCCCCN(C(C)=O)C(=O)/C=C/c1ccc([N+](=O)[O-])cc1)Cc1ccccc1`, half-maximal inhibition (IC50) was put at 539 nM. This lies in the sub-micromolar range.

In turn, `CCN(CCCCCC(=O)c1ccc(N2CCCC2)cc1)Cc1ccccc1` displayed an IC50 of 305 nM.

Consider `CCN(CCCCCC(=O)c1ccc(OC)c(OC)c1)Cc1ccccc1OC`, for which the IC50 came to 24 nM.

The compound `CCN(CCCCCN1C(=O)c2ccc([N+](=O)[O-])cc2C1=O)Cc1cccc(OC)c1OC` came in with an IC50 of 274 nM.

`COc1ccccc1CN1CCC(CCC(=O)c2ccc(N3CCCC3)cc2)CC1` displayed an IC50 of 1900 nM.

`O=C1c2ccccc2C(=O)N1CCC1CCN(Cc2ccccc2)CC1` displayed an IC50 of 30 nM.

`CCN(CCCCCN1C(=O)c2ccc([N+](=O)[O-])cc2C1=O)Cc1ccccc1OC`: the IC50 is 24 nM.

The compound `O=C1c2ccc([N+](=O)[O-])cc2C(=O)N1C1CCN(Cc2ccccc2)CC1` gave an IC50 of 27000 nM.

In the case of `CCN(CCCCCCCc1ccc(OC)c(OC)c1)Cc1ccccc1OC`, 1070 nM corresponded to half-maximal inhibition (IC50).

Turning to `CCN(CCCCCNC(=O)/C=C/c1ccccc1)Cc1ccccc1`, the IC50 stood at 11800 nM.

`O=C1c2ccc([N+](=O)[O-])cc2C(=O)N1CCC1CCN(Cc2ccccc2)CC1` came in with an IC50 of 13 nM.

Regarding `COc1ccc(C(=O)CCC2CCN(Cc3ccccc3)CC2)cc1OC`, 52 nM corresponded to half-maximal inhibition (IC50).

For `CCN(CCCCCCN1C(=O)c2ccc([N+](=O)[O-])cc2C1=O)Cc1ccccc1`, half-maximal inhibition (IC50) required 607 nM.

The compound `CCN(CCCCCCC(=O)c1ccc(OC)c(OC)c1)Cc1ccccc1OC` yielded a half-inhibitory concentration (IC50) of 10 nM.

For `CCN(CCCCCN(C(C)=O)C(=O)/C=C/c1ccccc1)Cc1ccccc1`, the IC50 was found to be 2300 nM.

`CN(CCCCCN1C(=O)c2ccc([N+](=O)[O-])cc2C1=O)Cc1ccccc1` gave an IC50 of 1360 nM.

The compound `CCN(CCCCCN1C(=O)c2ccc([N+](=O)[O-])cc2C1=O)Cc1cccc(OC(=O)NC)c1` yielded an IC50 of 0.38 nM.

In turn, `CCN(CCCCCN1C(=O)C2CCCCC2C1=O)Cc1ccccc1` (stereo unspecified) registered an IC50 of 18500 nM.

As for `CN(CCCCCCN1C(=O)c2ccc([N+](=O)[O-])cc2C1=O)Cc1ccccc1`, the IC50 was 474 nM.

`CCN(CCCCCN1C(=O)c2ccccc2C1=O)Cc1ccccc1` yielded an IC50 of 3370 nM.

As for `CCN(CCCCCN1C(=O)c2ccc([N+](=O)[O-])cc2C1=O)CCc1ccccc1`, 770 nM corresponded to half-maximal inhibition (IC50). This IC50 lies about 4.4-fold lower than the previous one.

In the case of `O=C1c2ccc([N+](=O)[O-])cc2C(=O)N1CC1CCN(Cc2ccccc2)CC1`, half-maximal inhibition (IC50) was put at 3000 nM.

For `CCN(CCCCCN1C(=O)c2ccc([N+](=O)[O-])cc2C1=O)CCCc1ccccc1`, the IC50 was 161 nM.

Compound `CCN(CCCCCCOc1ccc(OC)c(OC)c1)Cc1ccccc1OC` came in with a half-inhibitory concentration (IC50) of 920 nM.

As to `CCCN(CCCCCN1C(=O)c2ccc([N+](=O)[O-])cc2C1=O)Cc1ccccc1`, the IC50 was determined as 2650 nM.

In turn, `CCN(CCCCCN1C(=O)c2ccc([N+](=O)[O-])cc2C1=O)CC1CCCCC1` yielded an IC50 of 1090 nM. This IC50 is about 2.4-fold lower than that of the compound before.

For the origin of these results see ChEMBL document CHEMBL1127728, “Docking analysis of a series of benzylamino acetylcholinesterase inhibitors with a phthalimide, benzoyl, or indanone moiety” (J Med Chem, 1994).
